Marks after values point to notes of the source that are not given here.
What was measured:
[1] = tested on: codling moth neonates; experiment: apple plug choice feeding bioassay with codling moth neonates; assay type: in vivo, Cydia pomonella; design: key to Deterrence index: (1 − treated feeders / control feeders) × 100; conditions: for concentration at which feeding deterrent effects were found / feeding deterrent properties against codling moth neonates: Fisher exact test; for feeding deterrent properties against codling moth neonates: all concentrations tested
Protocol: Codling moth pupae were obtained from USDA-ARS Yakima Agricultural Research Laboratory in Wapato, Wash., USA. These pupae were stored at 25° C., 70-80% relative humidity and 16:8 (L:D). Moths were allowed to oviposit on polypropylene Ziploc bags (S. C. Johnson, Racine, Wis., USA). Neonates were collected 0.5-1.0 h post-hatch and subjected to bioassays immediately.
Bioassays were performed as described in details by Durden et al. (2008). Briefly, apple plugs were formed by forcing a plastic soda straw through a 20 mm thick section of apple containing both epidermis and flesh of the apple. The straw with a plug in it was cut to a length of approximately 15 mm, the plug positioned with the epidermis of the apple protruding 2 mm from the straw and entire assembly was dipped in liquid paraffin wax. Excess wax was removed from the epidermis of the plug using a warm spatula.
Five microliters of either control (dehydration alcohol only) or experimental solution was applied to the epidermis of each apple plug and allowed to dry. Using a small amount of modeling clay, four plugs (two controls, two experimental) were arranged with one control and one experimental plug facing each other at either side of a 60×15 mm polyurethane petri dish. A short piece of glass rod (1.3 mm diameter) was placed between the two pairs of plugs to form a bridge allowing tested codling moth neonate to choose between either control or experimental plug regardless of which direction the larva traveled along the glass rod.
Assays were evaluated after 20 hours to determine which plug was fed upon. Feeding deterrence index was calculated according to Jones (1952) by dividing the number of the neonates feeding on apple plugs treated with […] by the number of the neonates feeding on the plugs treated with dehydration alcohol only, subtracting this figure from 1, and multiplying the result by 100. Further details about this method may be found in Durden et al. (2008) and Durden et al., (2011).
[…] The number of tests per concentration (each test performed with a different neonate) varied between 13 and 93. The null hypothesis that 50% of neonates would choose control plugs and 50% would choose experimental plugs was tested using Fisher's Exact Test (α=0.05).

[2] = tested on: mammals; conditions: cited from earlier work
[3] = concentration of 0.2%; cited from earlier work
[4] = choice test versus fruit treated at 0.01 mg/ml
[5] = choice test versus fruit treated at 0.1 mg/ml
[6] = choice test versus fruit treated at 1 mg/ml
[7] = choice test versus fruit treated at 10 mg/ml
[8] = choice test versus fruit treated at 0.5 mg/ml
[9] = choice test versus fruit treated at 5 mg/ml
[10] = circa 3 mg/ml, saturated solution
[11] = choice test versus fruit treated at 30 mg/ml

Compound	Deterrence index ([1]; 0.1 mg/ml)	Number of neonates feeding Treated fruit ([1]; 0.1 mg/ml)	Deterrence index ([1]; 1 mg/ml)	Number of neonates feeding Treated fruit ([1]; 1 mg/ml)	Deterrence index ([1]; 10 mg/ml)	Number of neonates feeding Treated fruit ([1]; 10 mg/ml)	Number of neonates feeding Control fruit [1, 5]	Number of neonates feeding Control fruit [1, 6]	Number of neonates feeding Control fruit [1, 7]	Deterrence index ([1]; 0.5 mg/ml)	Number of neonates feeding Treated fruit ([1]; 0.5 mg/ml)	Deterrence index ([1]; 5 mg/ml)	Number of neonates feeding Treated fruit ([1]; 5 mg/ml)	feeding deterrent properties against codling moth neonates [1]	Number of neonates feeding Control fruit [1, 8]	Number of neonates feeding Control fruit [1, 9]	further results
CC(C)(C)[C@]1(O)CC2OC(=O)CC23C(=O)OC2OC(=O)[C@H](O)C231 (some centres unmarked) [Bilobalide]	56.5	20*	50	31*	75	8**	46	62	32	–	–	–	–	–	–	–	Deterrence index ([1]; 0.001 mg/ml): 0; Number of neonates feeding Treated fruit ([1]; 0.001 mg/ml): 15; Deterrence index ([1]; 0.01 mg/ml): 23.5; Number of neonates feeding Treated fruit ([1]; 0.01 mg/ml): 13; concentration at which feeding deterrent effects were found [1]: ≥ 0.1 mg/mL; Number of neonates feeding Control fruit ([1]; choice test versus fruit treated at 0.001 mg/ml): 15; Number of neonates feeding Control fruit [1, 4]: 17; LD50 [2]: > 1,000 mg/kg; phytotoxicity [3]: not phytotoxic
CCCCCCCCCCCCCc1cccc(O)c1C(=O)O [Ginkgolic acid 13:0]	–	–	26.1	17	42.1	11	–	23	19	23.5	13	0	14	did not exhibit significant feeding deterrent properties	17	14	–
CCCCCCCCCCCCCCCc1cccc(O)c1C(=O)O [Ginkgolic acid 15:0]	–	–	91.7	1*	–	–	–	12	–	26.7	11	81.8	4**	–	15	22	Deterrence index ([1]; 0.2 mg/ml): 25.0; Number of neonates feeding Treated fruit ([1]; 0.2 mg/ml): 12; Deterrence index ([1]; 2 mg/ml): 73.7; Number of neonates feeding Treated fruit ([1]; 2 mg/ml): 5*; concentration at which feeding deterrent effects were found [1]: ≥ 1 mg/mL; Number of neonates feeding Control fruit ([1]; choice test versus fruit treated at 0.2 mg/ml): 16; Number of neonates feeding Control fruit ([1]; choice test versus fruit treated at 2 mg/ml): 19
CCCCCC/C=C\CCCCCCCc1cccc(O)c1C(=O)O [Ginkgolic acid 15:1]	–	–	41.7	14	63.2	7	–	24	19	18.8	13	50.0	15	did not exhibit significant feeding deterrent properties	16	30	–
CCCCCC/C=C\CCCCCCCCCc1cccc(O)c1C(=O)O [Ginkgolic acid 17:1]	–	–	5.3	18	60.0	8	–	19	20	37.5	10	54.5	10	did not exhibit significant feeding deterrent properties	16	22	–
C[C@@H]1C(=O)O[C@H]2C[C@@]34[C@H]5C[C@@H](C(C)(C)C)[C@]36[C@@H](OC(=O)[C@@H]6O)O[C@@]4(C(=O)O5)[C@]21O [Ginkgolide A]	7.69	12	40.4	28	38.5	16	13	47	26	–	–	–	–	did not exhibit significant feeding deterrent properties	–	–	–
CC1C(=O)OC2C(O)C34C5CC(C(C)(C)C)C36C(OC(=O)C6O)OC4(C(=O)O5)C12O (centres unmarked) [Ginkgolide B]	12.5	14	26.1	17	76.0	6***	16	23	25	–	–	–	–	–	–	–	concentration at which feeding deterrent effects were found [1]: 10 mg/mL
COc1cc(-c2oc3cc(O)cc(O)c3c(=O)c2O)ccc1O [Isorhamnetin]	10.3	26	No deterrence	43	–	–	29	28	–	–	–	–	–	slight tendency to discourage some percentage of the larvae from infesting the fruit	–	–	Deterrence index ([1]; 0.01 mg/ml): 21.7; Number of neonates feeding Treated fruit ([1]; 0.01 mg/ml): 18; Number of neonates feeding Control fruit [1, 4]: 23; Number of neonates feeding Control fruit ([1]; choice test versus fruit treated at circa 3 mg/ml, saturated solution): 28; Deterrence index [1, 10]: 32.1; Number of neonates feeding Treated fruit [1, 10]: 19
O=c1c(O)c(-c2ccc(O)cc2)oc2cc(O)cc(O)c12 [Kaempferol]	No deterrence	12	25	24	No deterrence	10	8	32	10	–	–	–	–	–	–	–	Deterrence index ([1]; 30 mg/ml): No deterrence**; Number of neonates feeding Treated fruit ([1]; 30 mg/ml): 35; Deterrence index ([1]; 60 mg/ml): No deterrence*; Number of neonates feeding Treated fruit ([1]; 60 mg/ml): 17; Number of neonates feeding Control fruit [1, 11]: 9; Number of neonates feeding Control fruit ([1]; choice test versus fruit treated at 60 mg/ml): 3
O=c1c(O)c(-c2ccc(O)c(O)c2)oc2cc(O)cc(O)c12 [Quercetin]	No deterrence	14	No deterrence	24	No deterrence	20	10	24	16	–	–	–	–	–	–	–	Deterrence index ([1]; 30 mg/ml): No deterrence**; Number of neonates feeding Treated fruit ([1]; 30 mg/ml): 21; Number of neonates feeding Control fruit [1, 11]: 4
Ginkgolide C	11.8	15	20	24	10	18	17	30	20	–	–	–	–	did not exhibit significant feeding deterrent properties	–	–	–

From US10010077B2, “Ginkgo derived compositions and their use to prevent fruit infestation by codling moth” (Missouri State University, priority 2012, dated 2018)
